In the case of `CC(C)(C)c1ccc(OCC(=O)N2Cc3ccc(C(=O)NCc4cccnc4)n3Cc3ccccc32)cc1`, the melting point is reported as 85 °C.
Work on `CCCc1c(C(=O)NCc2ccc3cc(OCC(=O)O)ccc3c2)cnn1-c1ccccc1` yielded a melting point of 175 to 177 °C.
Work on `CCCNC(=O)Nc1ccccc1C(=O)OCC` yielded a melting point of 98 to 99 °C.
With `O=C1C(c2ccccc2)=C(c2c(Cl)cccc2Cl)C(=O)N1c1ccc(Cl)cc1` the melting point was 134 °C.
With `O=C1c2ccccc2C(=O)N1OCCCN1CCN(c2nsc3ccccc23)CC1` the melting point was 143 to 144 °C.
`O=S(=O)(CCCl)C(c1ccccc1)S(=O)(=O)CCCl` showed a melting point of 106 to 108 °C.
`COc1c(O)cccc1C(=O)C1CCN(CCc2ccc(F)cc2)CC1` gave a melting point of 100 to 101 °C.
Molecule `COc1cccc(C(=O)Nc2nnn[nH]2)c1N` has a melting point of 268 to 269 °C.
`CS(=O)(=O)c1cccc(NC(=O)c2cnn3c(C4CC4)cc(-c4ccc(C(F)(F)F)cc4)nc23)c1` showed a melting point of 231 to 234 °C.
For `O=[N+]([O-])c1ccc(CNc2ccccn2)cc1`, the melting point was 131 to 132 °C.
`OC1CCCc2nc3cc(F)ccc3c(NCc3ccccc3C(F)(F)F)c21` (stereo unspecified) gave a melting point of 149 to 153 °C.
In the case of `Cc1ccc(Nc2c([N+](=O)[O-])cc(C(=O)O)cc2S(N)(=O)=O)c(C)c1`, the melting point is reported as 224 to 226 °C.
Molecule `N#Cc1cccc2nc(CCC#Cc3ccccn3)oc12` has a melting point of 126 °C.
With `Cc1cc(O)c2cccc(OCc3c(Cl)ccc([N+](=O)[O-])c3Cl)c2n1` the melting point was 255 to 258 °C.
Work on `O=C1Nc2ccccc2Nc2nc(-c3ccccc3)ncc21` yielded a melting point of 260 to 261 °C.
Molecule `CC(CC(F)(F)CC(Cl)(CO)CO)C1CCC2C3CC=C4CC(O)CCC4(C)C3CCC12C` (stereo unspecified) has a melting point of 152 to 153 °C.
`CCOC(=O)C(C)Oc1ccc(C(C)=O)cc1` (stereo unspecified) gave a melting point of 49.6 °C.
Work on `CNC(=O)[C@H]1O[C@@H](n2cnc3c(NCc4cc(Cl)ccc4OCc4ccccc4)ncnc32)[C@H](O)[C@@H]1N` yielded a melting point of 114 to 115 °C.
For `CCOC(=O)c1c(-c2ccccc2)c2ccc(Cl)cc2c(=O)n1C`, the melting point was 152 to 153 °C.
`CCCCC(=O)c1c(-c2ccc3cc(O)ccc3c2)oc2ccc(Cl)cc12` gave a melting point of 156 to 157 °C.
In the case of `CCC(=O)c1c(-c2ccncc2)[nH]c(-c2ccncc2)c1CC`, the melting point is reported as 209 to 211 °C.
`O=C(O)c1nc2ccc(OCCCN3CCC(OC(c4ccccc4)c4ccccc4)CC3)nn2n1` gave a melting point of 173 to 177 °C.
With `CC(C#N)c1ccc(O)c([N+](=O)[O-])c1` (stereo unspecified) the melting point was 78 to 81 °C.
For `CCN(CC)CCOc1ccc2c(c1)c(C(=O)OCc1ccccc1)c(C)n2C`, the melting point was 73 to 74 °C.
With `CN(C(=O)CCc1ccccc1)c1ccc(C(=O)NN=C2C(=O)Nc3ccc(I)cc32)cc1` the melting point was 239 °C.
Molecule `N#CCC(=O)NCCCNC(=O)CC#N` has a melting point of 146 °C.
With `OCC(Br)c1ccccc1` (stereo unspecified) the melting point was 38 to 39 °C.
With `CN1CCC(C)(O)c2cccc(CSc3nc4ccccc4[nH]3)c21` (stereo unspecified) the melting point was 156 to 157 °C.
Work on `O=C1Nc2cc(CN3CC=C(c4ccc(Cl)cc4)CC3)cnc2N2CCCCC12` (stereo unspecified) yielded a melting point of 202 °C.
`CC(C)(C)OC(=O)NC(CC(=O)OCc1ccccc1)C(=O)C(C#N)=P(c1ccccc1)(c1ccccc1)c1ccccc1` (stereo unspecified) showed a melting point of 42 to 44 °C.
For `CC(=O)C(=NNc1ccccc1)C(=O)Nc1ccccc1`, the melting point was 96 to 97 °C.
`COc1cc(OC)cc(C(=O)Nc2ccc3ccc(Cl)nc3n2)c1` showed a melting point of 235 °C.
In the case of `COCCC(=O)C1(N)C=CC(N(C)C(C)=O)=C(C#N)C1` (stereo unspecified), the melting point is reported as 143 to 145 °C.
Molecule `COc1ccc(C)cc1NC(=O)Nc1ccc(N2CCN(C(=O)Oc3ccccc3)CC2)cc1` has a melting point of 179 °C.
For `COc1cc2c(=O)c(Cc3cccnc3)cn3c4cc(Br)ccc4c(c1)c23`, the melting point was 169 to 172 °C.
Work on `CCNc1ccc(C(=O)Nc2ccc(OC)cc2)c(NC(=O)c2ccc(C(C)(C)C)cc2)c1` yielded a melting point of 205 to 208 °C.
In the case of `CCN(CC)C(=O)n1cc(C(F)F)c(S(=O)(=O)c2cc(Cl)cc(Cl)c2)n1`, the melting point is reported as 112 to 113 °C.
`CC(C)C1(C)N=C(c2c(C(=O)O)ccc3c2nnn3C)NC1=O` (stereo unspecified) gave a melting point of 250 to 254 °C.
`N#Cc1ccc(C=O)c(SCc2ccccc2)c1` gave a melting point of 106 to 109 °C.
`COc1cccc(-c2c(Cl)c(CN3CCOCC3)nc3sc4c(c23)CCN(Cc2ccccc2)C4)c1OC` showed a melting point of 176 to 177 °C.
`CC(C)Oc1cn(-c2cccc(C(F)(F)F)c2)nc(-c2ccnn2-c2ccccc2)c1=O` showed a melting point of 137 to 139 °C.
In the case of `COC(=O)/C=C/n1cnc2c(OC)cccc2c1=O`, the melting point is reported as 203 to 208 °C.
With `Cc1ccc(S(=O)(=O)N2CCC[C@H]2C(=O)N[C@@H](Cc2ccc(NC(=S)NCCN3CCCCC3)cc2)C(=O)O)cc1` the melting point was 148 to 158 °C.
`CCCC(Cl)(Cl)C(NC(=O)c1ccc(Cl)cc1)Nc1c(Nc2cccnc2)c(=O)c1=O` (stereo unspecified) gave a melting point of 258 to 259 °C.
With `Cn1nc(-c2ccc(S(=O)(=O)N3CCn4c(c(C(N)=O)c(Cl)c4-c4ccccc4)C3)s2)cc1C(F)(F)F` the melting point was 159 to 161 °C.
`O=C(Nc1ccccc1)ONC1=Nc2ccc(Cl)cc2C(c2ccccc2)=NC1` showed a melting point of 215 to 217 °C.
In the case of `CCc1ccc(S(N)(=O)=O)cc1`, the melting point is reported as 104 to 108 °C.
With `CN1CCN(c2cc(Cl)cc3c2c(=O)n(Cc2ccc(N)cc2)c(=O)n3Cc2ccccc2)CC1` the melting point was 93 to 96 °C.
Work on `O=c1[nH]c2cc(Cl)cc(Cl)c2c(-c2cc(Cl)ccc2O)c1O` yielded a melting point of 297 to 299 °C.
With `COc1cc2ncnc(N3CCC(CCNS(C)(=O)=O)CC3)c2cc1OC` the melting point was 162 to 164 °C.
Molecule `COc1cc(C(C)C)c(NC(=O)CN2CCN(CCSc3nc4cccc([N+](=O)[O-])c4o3)CC2)c(C(C)C)c1` has a melting point of 165 to 166 °C.
Work on `O=C(Nc1cccc2c3c(oc12)CCS(=O)C3)c1c(Cl)cccc1Cl` (stereo unspecified) yielded a melting point greater than 250 °C.
Molecule `CC1CNc2cc(C3=NNC(=O)CC3)ccc2O1` (stereo unspecified) has a melting point of 294 to 296 °C.
`O=C(O)c1nnc2ccc(NCCCN3CCC(OC(c4ccccc4)c4ccccc4)CC3)nn12` gave a melting point of 102 to 104 °C.
Work on `COc1ccc(S(=O)(=O)N2C(=O)C(c3ccccc3OC)(N3Cc4ccccc4C3C(=O)N(C)C)c3cc(Cl)ccc32)c(OC)c1` (stereo unspecified) yielded a melting point of 168 °C.
`O=S(=O)(c1ccc(F)cc1)N1CCCC1c1ccc(F)c(Cl)c1` (racemic) showed a melting point of 116 °C.
`CC(C)C(NC(=O)OC(C)(C)C)C(=O)NC(C(=O)OCC1OC(n2cc(C=CBr)c(=O)[nH]c2=O)CC1Cl)C(C)C` (stereo unspecified) gave a melting point of 102 to 103 °C.
With `O=C(O)Cc1ccc(C#CC#Cc2ccc(CC(=O)O)cc2)cc1` the melting point was 91 °C.
`c1ccc(COC[C@H]2OC(Sc3ccccc3)[C@H](OCc3ccccc3)[C@@H](OCc3ccccc3)[C@@H]2OCc2ccccc2)cc1` (stereo partly specified) showed a melting point of 85 to 86 °C.
In the case of `O=S(=O)(c1ccccc1)c1n[nH]c2ccccc12`, the melting point is reported as 118 °C.
Molecule `N#Cc1c(-c2cccc(F)c2)c(Cl)n2c1CNCC2` has a melting point of 104 to 106 °C.
Work on `CCCCCCCCCCN1CCN(O)C1=O` yielded a melting point of 68 to 69 °C.
Work on `COCCOc1cc2c(Nc3ccc(Sc4nccn4C)c(Cl)c3)c(C#N)cnc2cc1N1CCC(N2CCCC2)CC1` yielded a melting point of 238 to 241 °C.
With `CCCCN(CCCC)CCCOc1ccc(C(=O)c2c(C)oc3c(NS(C)(=O)=O)cccc23)cc1` the melting point was 135 °C.
Work on `CCCCCCCCCNC(=O)NCC(=O)O` yielded a melting point of 144 to 145 °C.
With `CCS(=O)(=O)CCC(=O)NNC(=O)N1Cc2ccccc2Oc2ccc(NS(C)(=O)=O)cc21` the melting point was 211 to 212 °C.
In the case of `O=C(O)C1CCC2C(=O)N(c3ccccc3)C(=S)N12` (stereo unspecified), the melting point is reported as 230 °C.
For `CCOC(=O)Cn1c(=O)c(=O)[nH]c2cc(C(F)(F)F)c(N)cc21`, the melting point was greater than 250 °C.
Molecule `CCCC(=O)c1ccc(OC)c(C(=O)Cl)c1` has a melting point of 65 °C.
`COCCNC(=O)CC1CN=C(c2cc3cc(Oc4ccc(S(C)(=O)=O)nc4)cc(OC)c3[nH]2)S1` (stereo unspecified) gave a melting point of 175 to 176 °C.
`COc1cc2c(cc1O)CC(C)(C)N(C(=O)c1cc(OC)c(OC)c(OC)c1)C2C` (stereo unspecified) showed a melting point of 198 to 200 °C.
`CC(C)N(CCN1C(=O)/C(=N/NC(=O)NC2CCCCC2)c2ccccc21)C(C)C` showed a melting point of 164 to 166 °C.
For `COC(=O)CC(=O)Nc1cccc(S)c1`, the melting point was 52 to 54 °C.
In the case of `COc1ccc(NC(=O)N2CCC(C)C2=O)cc1` (stereo unspecified), the melting point is reported as 71 to 72 °C.
With `CCCN1CCC(C(=O)O)=Cc2cc(Br)ccc21` the melting point was 172 to 173 °C.
In the case of `CC(C)n1nc(OCc2ccc3ccccc3n2)cc1CO`, the melting point is reported as 137 to 138 °C.
For `CC1(C)Oc2ccc(C#N)cc2[C@@H](NC(=O)Nc2ccc3c(c2)CN(C(=O)OCC(Cl)(Cl)Cl)C3)[C@@H]1O`, the melting point was 201 to 203 °C.
For `OCc1ccc(-c2cn(Cc3ccccc3)c3ccccc23)cc1`, the melting point was 122 °C.
`COc1cc(C)c(C=CC(C)=CC=CC(C)=CC(=O)OC2C(OC)OC(CO)C(O)C2O)c(C)c1C` (stereo unspecified) showed a melting point of 197 °C.
In the case of `CO[C@]1(c2cc(F)cc(Oc3ccc(/C(C)=N/O)cc3)c2)CCO[C@@H]1C` (racemic), the melting point is reported as 126 to 127 °C.
Work on `CCCCCCCCCCC1(C)OCC(C=Cc2ccc(-c3ccccc3)cc2)OO1` (stereo unspecified) yielded a melting point of 86 to 90 °C.
For `O=C(O)Cc1nn(Cc2ccc(Br)cc2F)c(=O)c2c(F)cccc12`, the melting point was 173 to 175 °C.
For `C=CCc1c(N2C(=O)C3=C(CCCC3)C2=O)ccc(C)c1O`, the melting point was 141 to 143 °C.
With `O=CC(=Cc1ccc(Cl)cc1)C(C=O)=Cc1ccc(Cl)cc1` the melting point was 172 to 173 °C.
With `CCn1ncc2c(NCC3CCCCC3)c3cc(C(=O)OC)ccc3nc21` the melting point was 275 to 277 °C.
With `CCOc1ccc(-c2ccc(C3COC(c4c(Cl)cncc4Cl)=N3)cc2)cc1` (stereo unspecified) the melting point was 121 to 122 °C.
With `COc1cc(C)c(C)cc1OC` the melting point was 41 to 42 °C.
`Cc1cc(Cl)cc(C(=O)NC(C)C2CC2)c1NC(=O)c1cc(Br)nn1-c1ncccc1Cl` (stereo unspecified) gave a melting point of 182 to 183 °C.
For `Cc1ccc(C(=O)NC(NC(=S)Nc2cccnc2)C(C)(C)C)cc1` (stereo unspecified), the melting point was 168 to 169 °C.
`COC(=O)c1ccc2nc3n(c(=O)c2c1)CCC3=Cc1ccccc1C` gave a melting point of 181 to 183 °C.
`COC(=O)c1[nH]c(Br)c(Br)c1OC(C)C` gave a melting point of 124 to 125 °C.
`CCn1cnc2c(Nc3cccc(C(=O)O)c3)nc(N[C@H]3CC[C@H](O)CC3)nc21` gave a melting point of 317 °C.
Work on `CN1CCC(c2n[nH]c3cc(Cl)ccc23)CC1` yielded a melting point of 211 to 213 °C.
In the case of `CC1(C)CC(=O)C(Cl)(Cl)C(Cl)C1Br` (stereo unspecified), the melting point is reported as 117 °C.
`CC(=O)Nc1cc2c(cc1[N+](=O)[O-])N(C(C)=O)CCO2` showed a melting point of 199 to 202 °C.
With `OC1N=C(c2ccccc2F)c2cc(Cl)ccc2-c2ncncc21` (stereo unspecified) the melting point was 186 to 188 °C.
